Here are results for seven molecules from paper PMC10208580 (Science Advances, 2023).

Read-outs that look alike come from different tables or passages of the source. Bridge positions count the residues as written; N and C are the ends. Square brackets hold non-standard residues; d marks the D form. Ends that are not written are not given here. Peptide text beside a SMILES is read from it. pT = C[C@@H](OP(=O)(O)O)[C@H](N)C(=O)O

In data set [1] the test system is RyR1. To be noted: cited from earlier work. The source says: The detailed binding interface between IpCa and RyR1 is shown in Fig. 3, and putative interacting pairs of residues are shown in table S1. IpCa enters the vestibule of the channel and binds deep at the cytosolic side, adjacent to the transmembrane region. All RyR1 residues involved in binding are located in the cytosolic extensions of the inner S6 helices (S6ext) that line the permeation pathway. Equivalent residues of all four RyR1 subunits make different interactions with IpCa. The most extensive interface includes the side of IpCa that contains the 22–30 loop. It mostly consists of various ... || The structure is also in agreement with previous mutagenesis studies of calcins. For example, Arg^23 is conserved in all calcins and forms a likely salt bridge with RyR1 residue Asp^4945. […] Another study found a general importance of multiple charged IpCa residues to form a subconductance state in RyR1, with the largest effects found for substitutions in the 22–30 loop ([20]), which forms the most extensive interactions with RyR1. Thus, the structure appears to be in general agreement with known potencies of natura ... || A third tunnel with a smaller radius (~1.8 Å) can be found at the lateral opening near Arg^24 (“exit 3,” fig. S10D). The narrower radius, along with the presence of three positively charged residues at the constriction point, likely provides a sizeable energetic barrier. Thus, on the basis of minimum radius and electrostatic surface potential, exit 1 may form the most likely exit pathway for Ca^2+ ions.

In data set [2] the target is T1, RyR1 (Oryctolagus cuniculus, UniProt P11716).
T1 construct: from tissue; host or cells: rabbit skeletal muscle heavy SR vesicles
Put plainly: [3H]ryanodine binding to skeletal muscle heavy SR vesicles. The data set is classed as biochemical, rabbit. To be noted: SEM.

The test system of data set [3] is CC(C)C[C@@H]1NC(=O)[C@H](Cc2c[nH]cn2)NC(=O)[C@@H]2CCCN2C(=O)[C@H](CC(C)C)NC(=O)[C@@H](NC(=O)[C@H](CC(=O)O)NC(=O)CN)CSSC[C@@H]2NC(=O)[C@@H]3CSSC[C@@H](C(=O)N[C@@H](CCCNC(=N)N)C(=O)O)NC(=O)[C@H](CCCNC(=N)N)NC(=O)[C@H](CCCCN)NC(=O)[C@H](CCC(=O)O)NC(=O)[C@H](C)NC(=O)[C@H](CC(N)=O)NC(=O)[C@H]([C@@H](C)O)NC(=O)CNC(=O)[C@H](CCCNC(=N)N)NC(=O)[C@H](CCCNC(=N)N)NC(=O)[C@H](CCCCN)NC(=O)[C@H](CSSC[C@H](NC(=O)[C@H](CCCNC(=N)N)NC(=O)[C@H](CCCCN)NC1=O)C(=O)N[C@@H](CCCCN)C(=O)N[C@@H](C)C(=O)N[C@@H](CC(=O)O)C(=O)N[C@@H](CC(N)=O)C(=O)N[C@@H](CC(=O)O)C(=O)N3)NC(=O)[C@H](CCCCN)NC(=O)[C@H](CCCCN)NC(=O)CNC2=O. The data set is described as follows: ADP-Glo kinase assay, Michaelis-Menten kinetics of peptide phosphorylation. In kind it is biochemical, mouse. As to conditions: other: peptide as PKA substrate; 25 nM PKAc, 1 mM ATP, substrate 0.5-512 µM, room temperature 30-60 min, luminescence; 6 repeats; pH 7.4. As for the experimental part:
(§1) PKAc was concentrated to 500 μM, aliquoted, and stored in kinase buffer containing 20 mM Hepes (pH 7.4), 150 mM KCl, 4 mM TCEP, 5 mM MgCl2, and 30% glycerol and stored at −70°C in 0.5-ml tubes prior for use in kinase assays. All ADP-Glo Max reagents (Promega) were thawed and brought to room temperature before use. Each 0.5-ml PKAc tube was thawed and diluted to 0.5 μM in the kinase buffer without the glycerol. Kemptide and IpCa substrates were diluted to 1 mM in kinase buffer (without glycerol) from 10 mM stock made from lyophilized powder. Using a twofold dilution series, substrate concentrations ranged from 512 to 0.5 μM. In addition, a reaction with no substrate was added for a total of 12 reactions using a 20-μl reaction volume. One microliter of ATP (from the ADP-Glo Max kit) was used to reach a final concentration of 1 mM ATP in the reaction volume. Reaction was started by adding 1 μl of PKAc to reach 25 nM for each reaction. All reactions were carried out at room temperature for 30 to 60 min. Duplicates of each reaction tube were plated on a Corning 384-well solid white polystyrene microplates (Thermo Fisher Scientific) and used for downstream detection and luminescence readings. The average values of each duplicate reaction were used as a single replicate. Thus, for the total of six replicates, 12 reactions were used. Readings are based on relative luminescence units, which are converted into moles of ATP hydrolyzed using an adenosine diphosphate–ATP standard curve according to manufacturer’s protocol (Promega). Each standard curve was run in duplicate where the average was used to calculate moles of ATP hydrolyzed in each kinase reaction. Luminescence readings were recorded from the microplate wells using a PerkinElmer Victor X4.
(§2) A nonlinear regression Michaelis-Menten kinetics fitting function was used in GraphPad Prism 8.0 to calculate KM,Vmax, and Kcat values for the PKA-IpCa kinase assays. SEMs are reported for each data point as calculated in Prism. Figures and graphs were generated using PyMOL, ChimeraX, and Prism 8.0 unless otherwise noted. [^3H] Ryanodine binding data were fitted using nonlinear regression analysis in Origin 2018b software (Origin Lab). Hill’s equation was used to determine Bmax (maximum specific binding) and Kd ([…]). Statistical significance was determined at P < 0.05.

The target of data set [4] is rabbit RyR1 (Ryanodine Receptor 1), purified from skeletal muscle (rabbit) (UniProt P11716).
The target of data set [5] is T2, mouse cAMP PKA catalytic subunit (PKAc, α isoform) (Mus musculus, UniProt P05132).
T2 construct: His tag (inferred from HisTrap purification) (cleaved yes); made in house; host or cells: E. coli Rosetta (DE3) pLysI
Put plainly: ADP-Glo kinase assay, Michaelis-Menten kinetics of peptide phosphorylation. The data set is classed as biochemical. As to conditions: peptide as PKA substrate, 25 nM PKAc, 1 mM ATP, 6 repeats. The protocol: as §1, §2

T1 sequence (P11716 whole entry): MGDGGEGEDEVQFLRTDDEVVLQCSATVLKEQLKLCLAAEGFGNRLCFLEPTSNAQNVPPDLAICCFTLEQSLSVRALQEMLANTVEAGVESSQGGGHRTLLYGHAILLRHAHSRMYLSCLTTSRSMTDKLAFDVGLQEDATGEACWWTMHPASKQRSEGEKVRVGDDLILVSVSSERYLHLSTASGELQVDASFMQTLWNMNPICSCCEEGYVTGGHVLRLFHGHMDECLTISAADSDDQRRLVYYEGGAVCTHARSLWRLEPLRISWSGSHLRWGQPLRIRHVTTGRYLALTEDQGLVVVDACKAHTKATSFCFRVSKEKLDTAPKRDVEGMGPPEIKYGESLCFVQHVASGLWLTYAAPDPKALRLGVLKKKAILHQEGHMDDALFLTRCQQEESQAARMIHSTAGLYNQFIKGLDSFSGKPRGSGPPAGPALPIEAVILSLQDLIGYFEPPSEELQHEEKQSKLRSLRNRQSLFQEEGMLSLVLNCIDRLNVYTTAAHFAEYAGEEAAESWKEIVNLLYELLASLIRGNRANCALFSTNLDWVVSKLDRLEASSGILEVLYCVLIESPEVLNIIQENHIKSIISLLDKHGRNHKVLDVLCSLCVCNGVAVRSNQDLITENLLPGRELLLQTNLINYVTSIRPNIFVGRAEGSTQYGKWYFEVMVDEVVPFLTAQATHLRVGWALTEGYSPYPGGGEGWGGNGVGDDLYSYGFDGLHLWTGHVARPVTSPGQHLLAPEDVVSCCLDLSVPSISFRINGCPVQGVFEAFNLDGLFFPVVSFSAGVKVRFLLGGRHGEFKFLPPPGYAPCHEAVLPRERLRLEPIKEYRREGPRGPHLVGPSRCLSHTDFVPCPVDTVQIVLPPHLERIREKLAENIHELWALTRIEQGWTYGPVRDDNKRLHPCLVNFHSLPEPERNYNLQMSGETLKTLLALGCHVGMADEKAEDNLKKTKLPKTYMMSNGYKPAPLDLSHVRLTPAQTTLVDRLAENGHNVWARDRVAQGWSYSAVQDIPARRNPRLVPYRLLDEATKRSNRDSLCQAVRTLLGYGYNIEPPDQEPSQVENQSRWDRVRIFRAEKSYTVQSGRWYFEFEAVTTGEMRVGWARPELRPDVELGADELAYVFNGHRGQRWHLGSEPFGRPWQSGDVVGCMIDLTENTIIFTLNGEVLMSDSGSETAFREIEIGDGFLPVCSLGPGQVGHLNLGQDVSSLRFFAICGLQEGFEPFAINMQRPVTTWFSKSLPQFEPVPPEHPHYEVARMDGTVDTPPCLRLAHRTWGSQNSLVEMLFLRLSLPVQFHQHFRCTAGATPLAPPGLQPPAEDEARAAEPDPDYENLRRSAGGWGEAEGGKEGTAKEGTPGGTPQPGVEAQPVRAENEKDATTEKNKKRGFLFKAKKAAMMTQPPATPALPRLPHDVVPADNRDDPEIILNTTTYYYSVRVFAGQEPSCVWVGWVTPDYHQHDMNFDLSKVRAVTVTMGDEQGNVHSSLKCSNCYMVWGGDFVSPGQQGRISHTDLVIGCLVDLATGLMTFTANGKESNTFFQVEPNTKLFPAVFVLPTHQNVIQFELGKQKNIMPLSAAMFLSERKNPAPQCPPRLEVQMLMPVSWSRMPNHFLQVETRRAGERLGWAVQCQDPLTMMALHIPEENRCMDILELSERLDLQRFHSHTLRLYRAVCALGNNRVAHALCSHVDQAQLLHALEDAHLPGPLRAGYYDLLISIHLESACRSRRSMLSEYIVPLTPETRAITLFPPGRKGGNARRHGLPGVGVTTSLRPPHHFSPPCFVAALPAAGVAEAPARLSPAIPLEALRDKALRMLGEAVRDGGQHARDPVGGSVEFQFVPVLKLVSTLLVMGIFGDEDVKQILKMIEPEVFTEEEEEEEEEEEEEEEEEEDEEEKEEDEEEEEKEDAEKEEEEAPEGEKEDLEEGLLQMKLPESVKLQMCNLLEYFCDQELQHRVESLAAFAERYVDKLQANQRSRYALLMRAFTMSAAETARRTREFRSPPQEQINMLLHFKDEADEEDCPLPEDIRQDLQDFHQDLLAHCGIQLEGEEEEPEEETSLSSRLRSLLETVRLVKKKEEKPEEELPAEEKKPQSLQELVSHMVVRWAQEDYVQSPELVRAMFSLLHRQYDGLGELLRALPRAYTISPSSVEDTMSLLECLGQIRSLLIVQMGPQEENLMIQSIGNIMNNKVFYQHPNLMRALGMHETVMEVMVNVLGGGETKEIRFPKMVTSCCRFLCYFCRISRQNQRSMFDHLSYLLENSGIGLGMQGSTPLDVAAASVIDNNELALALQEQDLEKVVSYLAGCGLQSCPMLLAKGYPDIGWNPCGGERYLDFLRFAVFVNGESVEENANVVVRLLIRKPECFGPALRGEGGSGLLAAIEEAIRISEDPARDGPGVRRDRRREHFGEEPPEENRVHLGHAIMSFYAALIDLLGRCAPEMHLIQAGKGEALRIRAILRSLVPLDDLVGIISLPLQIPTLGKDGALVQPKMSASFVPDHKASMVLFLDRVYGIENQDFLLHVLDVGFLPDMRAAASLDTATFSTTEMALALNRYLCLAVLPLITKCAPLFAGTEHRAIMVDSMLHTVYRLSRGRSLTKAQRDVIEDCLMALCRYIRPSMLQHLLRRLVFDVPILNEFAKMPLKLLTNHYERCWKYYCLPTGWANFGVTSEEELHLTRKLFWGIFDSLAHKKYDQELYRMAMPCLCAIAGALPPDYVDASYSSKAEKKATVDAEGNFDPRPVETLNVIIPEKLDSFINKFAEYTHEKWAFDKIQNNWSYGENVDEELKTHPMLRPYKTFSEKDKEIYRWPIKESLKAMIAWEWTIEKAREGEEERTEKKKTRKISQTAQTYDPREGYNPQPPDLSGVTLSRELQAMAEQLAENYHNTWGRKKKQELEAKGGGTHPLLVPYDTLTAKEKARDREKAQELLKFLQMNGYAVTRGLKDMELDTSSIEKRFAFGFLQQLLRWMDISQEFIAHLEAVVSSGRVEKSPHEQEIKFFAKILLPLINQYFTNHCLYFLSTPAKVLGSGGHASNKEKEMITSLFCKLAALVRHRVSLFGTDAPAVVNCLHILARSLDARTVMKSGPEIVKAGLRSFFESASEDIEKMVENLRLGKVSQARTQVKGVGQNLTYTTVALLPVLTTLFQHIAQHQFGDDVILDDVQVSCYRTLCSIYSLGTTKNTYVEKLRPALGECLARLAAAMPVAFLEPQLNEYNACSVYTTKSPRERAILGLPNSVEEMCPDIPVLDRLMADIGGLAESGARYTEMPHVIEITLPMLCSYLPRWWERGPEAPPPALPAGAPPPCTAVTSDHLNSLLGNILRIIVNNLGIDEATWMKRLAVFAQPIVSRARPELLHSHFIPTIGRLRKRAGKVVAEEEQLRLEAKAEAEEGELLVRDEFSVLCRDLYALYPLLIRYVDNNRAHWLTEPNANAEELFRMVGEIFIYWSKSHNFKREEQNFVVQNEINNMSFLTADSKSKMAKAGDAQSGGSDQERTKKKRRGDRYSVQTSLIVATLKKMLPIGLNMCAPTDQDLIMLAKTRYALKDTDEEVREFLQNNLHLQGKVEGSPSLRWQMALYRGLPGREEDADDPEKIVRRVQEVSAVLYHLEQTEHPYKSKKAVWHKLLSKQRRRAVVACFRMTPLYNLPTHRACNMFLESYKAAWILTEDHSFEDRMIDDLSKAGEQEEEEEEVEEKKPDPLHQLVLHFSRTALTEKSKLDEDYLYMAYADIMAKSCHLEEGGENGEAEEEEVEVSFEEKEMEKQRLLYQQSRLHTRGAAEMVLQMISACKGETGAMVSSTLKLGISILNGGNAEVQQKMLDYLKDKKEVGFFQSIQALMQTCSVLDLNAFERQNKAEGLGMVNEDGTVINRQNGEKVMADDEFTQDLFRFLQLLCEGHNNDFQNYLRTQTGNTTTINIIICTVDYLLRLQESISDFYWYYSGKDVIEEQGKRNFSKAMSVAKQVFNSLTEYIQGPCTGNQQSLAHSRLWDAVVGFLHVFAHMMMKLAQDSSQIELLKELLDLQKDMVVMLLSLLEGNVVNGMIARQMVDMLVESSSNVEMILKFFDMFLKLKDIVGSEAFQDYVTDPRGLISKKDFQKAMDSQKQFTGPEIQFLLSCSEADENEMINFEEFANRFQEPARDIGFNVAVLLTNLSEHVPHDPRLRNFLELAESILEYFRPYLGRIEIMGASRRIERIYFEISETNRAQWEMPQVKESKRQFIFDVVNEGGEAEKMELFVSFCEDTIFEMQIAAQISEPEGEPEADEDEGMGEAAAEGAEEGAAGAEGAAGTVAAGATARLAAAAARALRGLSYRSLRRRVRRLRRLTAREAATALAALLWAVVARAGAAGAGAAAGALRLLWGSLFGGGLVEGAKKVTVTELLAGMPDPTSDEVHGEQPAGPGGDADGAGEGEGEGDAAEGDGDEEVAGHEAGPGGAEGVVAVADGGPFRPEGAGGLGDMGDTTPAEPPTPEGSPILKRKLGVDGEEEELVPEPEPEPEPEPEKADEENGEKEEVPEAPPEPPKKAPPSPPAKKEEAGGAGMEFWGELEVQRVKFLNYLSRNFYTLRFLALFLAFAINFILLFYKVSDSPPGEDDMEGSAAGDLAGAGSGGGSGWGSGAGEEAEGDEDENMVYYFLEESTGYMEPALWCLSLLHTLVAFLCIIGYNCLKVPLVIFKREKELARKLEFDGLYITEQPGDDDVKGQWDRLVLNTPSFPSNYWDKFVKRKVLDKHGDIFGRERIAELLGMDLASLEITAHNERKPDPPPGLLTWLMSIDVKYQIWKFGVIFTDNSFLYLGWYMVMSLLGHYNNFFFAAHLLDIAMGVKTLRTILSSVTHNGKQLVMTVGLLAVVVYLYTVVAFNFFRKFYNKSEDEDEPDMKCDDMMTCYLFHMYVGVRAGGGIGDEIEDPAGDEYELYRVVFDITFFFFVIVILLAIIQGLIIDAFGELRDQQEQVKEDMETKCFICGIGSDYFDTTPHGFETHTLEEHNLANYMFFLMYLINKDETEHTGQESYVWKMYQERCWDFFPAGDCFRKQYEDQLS
Sequence of rabbit RyR1 (Ryanodine Receptor 1), purified from skeletal muscle (rabbit) (P11716 whole entry, canonical isoform): as the sequence (P11716 whole entry) above

As for “IpCa R23E: IpCa with the R23E mutation, from previous mutagenesis study (GDCLPHLKRCKADNDCCGKKCKERGTNAEKRCR; ends and bridges not checked; cysteine pairing not given here; UniProt P59868 1-33, looked up, variant R23E)”, the “Effect of mutation on potency” value in the data set with RyR1 [1] is given as “drastically reduce potency”.
“opicalcin2: calcin differing from opicalcin1 only by Ala26 instead of Thr26 (GDCLPHLKRCKENNDCCSKKCKRRGANPEKRCR; ends and bridges not checked; cysteine pairing not given here; UniProt P60253 34-66, looked up)”: the “Apparent affinity / potency” value in the data set on RyR1 [1] was “can still bind with high potency”. The “Difference in potency between opicalcin1 and opicalcin2” value with RyR1 [1] (opicalcin2 less potent, fig. S5, ref Xiao et al (2016)) was ~ 10 fold.
In the case of `CC(C)C[C@@H]1NC(=O)[C@H](Cc2c[nH]cn2)NC(=O)[C@@H]2CCCN2C(=O)[C@H](CC(C)C)NC(=O)[C@@H](NC(=O)[C@H](CC(=O)O)NC(=O)CN)CSSC[C@@H]2NC(=O)[C@@H]3CSSC[C@@H](C(=O)N[C@@H](CCCNC(=N)N)C(=O)O)NC(=O)[C@H](CCCNC(=N)N)NC(=O)[C@H](CCCCN)NC(=O)[C@H](CCC(=O)O)NC(=O)[C@H](C)NC(=O)[C@H](CC(N)=O)NC(=O)[C@H]([C@@H](C)OP(=O)(O)O)NC(=O)CNC(=O)[C@H](CCCNC(=N)N)NC(=O)[C@H](CCCNC(=N)N)NC(=O)[C@H](CCCCN)NC(=O)[C@H](CSSC[C@H](NC(=O)[C@H](CCCNC(=N)N)NC(=O)[C@H](CCCCN)NC1=O)C(=O)N[C@@H](CCCCN)C(=O)N[C@@H](C)C(=O)N[C@@H](CC(=O)O)C(=O)N[C@@H](CC(N)=O)C(=O)N[C@@H](CC(=O)O)C(=O)N3)NC(=O)[C@H](CCCCN)NC(=O)[C@H](CCCCN)NC(=O)CNC2=O` [IpCa-pT26] (H-GDCLPHLKRCKADNDCCGKKCKRRG[pT]NAEKRCR-OH; disulfide 3-17, 10-21, 16-32), at RyR1 [2] (skeletal muscle heavy SR vesicles, mean ± SEM for n = 3 separate experiments, read-out: Median effective concentration for stimulation of [3H]ryanodine binding), the EC50 is 42 ± 10 nM.
As to “mouse cAMP PKA catalytic subunit (PKAc, α isoform) (Mus musculus)”, in data set [3], the Km was determined as 22.0 ± 3.40 µM, the maximal velocity (Vmax) was determined as 20.2 ± 0.93 µmol/min/mg, the kcat turned out to be 11.2 ± 0.518 s⁻¹ and the kcat/Km was determined as 508000 M⁻¹ s⁻¹.
On to “Imperacalcin (from UniProt P59868 1-33) (peptide)”, for which the [3H] ryanodine binding to skeletal muscle heavy SR vesicles against IpCa-WT concentration; median effective concentration in data set [4] turned out to be 6 nM.
Consider `CC(C)C[C@@H]1NC(=O)[C@H](Cc2c[nH]cn2)NC(=O)[C@@H]2CCCN2C(=O)[C@H](CC(C)C)NC(=O)[C@@H](NC(=O)[C@H](CC(=O)O)NC(=O)CN)CSSC[C@@H]2NC(=O)[C@@H]3CSSC[C@@H](C(=O)N[C@@H](CCCNC(=N)N)C(=O)O)NC(=O)[C@H](CCCNC(=N)N)NC(=O)[C@H](CCCCN)NC(=O)[C@H](CCC(=O)O)NC(=O)[C@H](C)NC(=O)[C@H](CC(N)=O)NC(=O)[C@H]([C@@H](C)O)NC(=O)CNC(=O)[C@H](CCCNC(=N)N)NC(=O)[C@H](CCCNC(=N)N)NC(=O)[C@H](CCCCN)NC(=O)[C@H](CSSC[C@H](NC(=O)[C@H](CCCNC(=N)N)NC(=O)[C@H](CCCCN)NC1=O)C(=O)N[C@@H](CCCCN)C(=O)N[C@@H](C)C(=O)N[C@@H](CC(=O)O)C(=O)N[C@@H](CC(N)=O)C(=O)N[C@@H](CC(=O)O)C(=O)N3)NC(=O)[C@H](CCCCN)NC(=O)[C@H](CCCCN)NC(=O)CNC2=O` [IpCa, Imperacalcin] (H-GDCLPHLKRCKADNDCCGKKCKRRGTNAEKRCR-OH; disulfide 3-17, 10-21, 16-32), for which the EC50 on RyR1 [2] was determined as 6 ± 2 nM.
Consider LRRASLG [Kemptide], for which, in data set [5] (room temperature), the Vmax worked out at 8.34 ± 0.40 µmol/min/mg and the kcat was 4.62 ± 0.22 s⁻¹. Further, the Km in data set [5] (substrate 0.5-512 µM, room temperature 30-60 min, luminescence) came to 10.3 ± 2.16 µM.
